Source: the NIST ThermoML archive (doi:10.1021/je301004f)

Key:
[1] = for mass density / viscosity: 101.33 kPa, Liquid; for mass density: Vibrating tube method; for viscosity: Falling or rolling sphere viscometry
[2] = refractive index (Na D-line) (dimensionless); settings: 101.33 kPa, Liquid, Standard Abbe refractometry

CCCCCCCC/C=C\CCCCCCCCn1cc[n+](C)c1.O=S(=O)([N-]S(=O)(=O)C(F)(F)F)C(F)(F)F
Settings	mass density [kg/m3]	refractive index	viscosity [mPa·s]
[1], 273.15 K	1210.9	–	–
[1], 278.15 K	–	–	1005.3
[1], 283.15 K	1202.62	–	698.6
[1], 288.15 K	–	–	492.9
[1], 293.15 K	1194.49	–	355.7
[1], 298.15 K	–	–	263.5
[1], 303.15 K	1186.39	–	222.85
[1], 313.15 K	1178.38	–	133.94
[1], 323.15 K	1170.38	–	85.97
[1], 333.15 K	1162.47	–	58.09
[1], 343.15 K	1154.57	–	41.09
[2], 283.2 K	–	1.4576	–
[2], 293.2 K	–	1.4545	–
[2], 298.2 K	–	1.4528	–
[2], 303.2 K	–	1.4511	–
[2], 313.2 K	–	1.4479	–
[2], 323.2 K	–	1.4446	–
[2], 333.2 K	–	1.441	–
[2], 343.2 K	–	1.4379	–

Settings	Normal melting temperature [°C]
[1], Crystal, DTA	-20.8
